Test results taken from the supplement of paper PMC10331698.
± gives the standard deviation of the averaged measurements.

Tests used:
Test in all cases: level (log10 ratio to DMSO vehicle control); higher = higher biomarker level / cell amount than vehicle control
Settings in all cases: in DMSO
[1] = compound: O=C(O)C(F)(F)C(F)(F)OC(F)(F)F [Perfluoro-3-methoxypropanoic acid]
Experimental: (§1)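 BioMAP Diversity Plus panel of 12 human primary cell co-culture systems (3C, 4H, LPS, SAg, BT, BF4T, BE3C, CASM3C, HDF3CGF, KF3CT, MyoF, Mphg). Compounds were added 1 h before stimulation and left for 24 h (MyoF 48 h; BT 72 h for soluble read-outs or 6 d for IgG). Biomarkers were read by ELISA, cytotoxicity by SRB, PBMC viability and proliferation by Alamar Blue. Each well value was divided by the mean of 8 DMSO control wells on the same plate and log10 transformed; duplicate blinded samples were tested at 4 concentrations.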

[2] = compound: C=CC(=O)OCC(F)(F)C(F)(F)C(F)(F)C(F)(F)C(F)(F)C(F)(F)C(F)(F)F [1H,1H-Perfluorooctyl acrylate]
Experimental: as §1

[3] = compound: O=S(=O)(O)C(F)(F)C(F)(F)C(F)(F)C(F)(F)C(F)(F)C(F)(F)F [Perfluorohexanesulfonic acid]
Experimental: as §1

Perfluoroheptanoic acid = compound: O=C(O)C(F)(F)C(F)(F)C(F)(F)C(F)(F)C(F)(F)C(F)(F)F [Perfluoroheptanoic acid]
Experimental: as §1

Perfluoro-1-iodohexane = compound: FC(F)(F)C(F)(F)C(F)(F)C(F)(F)C(F)(F)C(F)(F)I [Perfluoro-1-iodohexane]
Experimental: as §1

[4] = compound: O=C(O)C(F)(F)OC(F)(F)C(F)(F)OC(F)(F)C(=O)O [Perfluoro-3,6-dioxaoctane-1,8-dioic acid]
Experimental: as §1

Row | Test System | level (log10) ([1]; 6700 nM) | level (log10) ([1]; 20000 nM) | level (log10) ([1]; 60000 nM) | level (log10) ([2]; 6700 nM) | level (log10) ([2]; 20000 nM) | level (log10) ([2]; 60000 nM) | level (log10) ([3]; 6700 nM) | level (log10) ([3]; 20000 nM) | level (log10) ([3]; 60000 nM) | level (log10) (Perfluoroheptanoic acid; 6700 nM) | level (log10) (Perfluoroheptanoic acid; 20000 nM) | level (log10) (Perfluoroheptanoic acid; 60000 nM) | level (log10) (Perfluoro-1-iodohexane; 6700 nM) | level (log10) (Perfluoro-1-iodohexane; 20000 nM) | level (log10) (Perfluoro-1-iodohexane; 60000 nM) | level (log10) ([4]; 6700 nM) | level (log10) ([4]; 20000 nM) | level (log10) ([4]; 60000 nM)
1 | HDF3CGF:Collagen III | -0.0025 ± 0.0078 | 0.009 ± 0.024 | 0.039 ± 0.05 | 0.067 ± 0.035 | 0.042 ± 0.04 | -0.0245 ± 0.084 | -0.0005 ± 0.022 | 0.0005 ± 0.015 | 0.0105 ± 0.043 | -0.021 ± 0.011 | -0.0385 ± 0.033 | -0.013 ± 0.016 | -0.0405 ± 0.066 | -0.0755 ± 0.0021 | -0.178 ± 0.13 | -0.0115 ± 0.013 | 0.002 ± 0.011 | 0.0535 ± 0.012
2 | MyoF:MMP-1 | -0.0135 ± 0.0064 | 0.0055 ± 0.011 | 0.0105 ± 0.043 | -0.0135 ± 0.019 | -0.016 | 0.0275 ± 0.005 | -0.029 ± 0.0085 | -0.012 | -0.002 ± 0.0028 | -0.0175 ± 0.0064 | -0.0245 ± 0.011 | 0.021 ± 0.061 | 0.036 ± 0.0071 | 0.451 ± 0.19 | 0.661 ± 0.0028 | -0.0065 ± 0.0092 | -0.0155 ± 0.019 | 0.0225 ± 0.067
3 | lMphg:M-CSF | -0.0075 ± 0.012 | -0.025 ± 0.0071 | -0.0025 ± 0.037 | 0.015 ± 0.0028 | -0.0245 ± 0.023 | -0.027 ± 0.034 | -0.0105 ± 0.033 | 0.0005 ± 0.011 | 0.0135 ± 0.022 | -0.006 ± 0.0014 | -0.001 ± 0.016 | 0.005 ± 0.0071 | -0.0095 ± 0.0035 | -0.032 ± 0.016 | 0.0085 ± 0.026 | -0.009 | -0.0185 ± 0.015 | 0.01 ± 0.042
4 | HDF3CGF:CD106/VCAM-1 | -0.008 ± 0.02 | 0.0165 ± 0.052 | -0.0005 ± 0.036 | -0.016 ± 0.011 | -0.031 ± 0.013 | -0.097 ± 0.0057 | 0.0105 ± 0.011 | 0.0165 ± 0.00071 | -0.0155 ± 0.0035 | -0.034 ± 0.027 | -0.0135 ± 0.029 | -0.021 ± 0.038 | -0.027 ± 0.024 | -0.032 ± 0.014 | -0.405 ± 0.44 | -0.0075 ± 0.00071 | -0.0085 ± 0.016 | -0.0035 ± 0.05
5 | MyoF:SRB | -0.005 ± 0.0042 | -0.004 ± 0.0028 | 0 ± 0.0014 | -0.003 ± 0.011 | -0.012 ± 0.018 | -0.0335 ± 0.005 | 0.003 ± 0.0057 | -0.0045 ± 0.0035 | -0.0165 ± 0.021 | -0.0005 ± 0.00071 | 0 ± 0.0085 | -0.003 ± 0.021 | -0.0405 ± 0.05 | -0.263 ± 0.16 | -0.712 ± 0.15 | 0 ± 0.011 | -0.007 ± 0.0042 | 0.0065 ± 0.0078
6 | HDF3CGF:CXCL10/IP-10 | 0.001 ± 0.011 | 0.0055 ± 0.011 | -0.0135 ± 0.021 | -0.001 ± 0.0057 | -0.0455 ± 0.022 | -0.047 | 0.0035 ± 0.0064 | 0.0015 ± 0.021 | -0.0135 ± 0.012 | -0.0295 ± 0.046 | -0.015 ± 0.016 | -0.0295 ± 0.0092 | -0.033 ± 0.014 | -0.0435 ± 0.0035 | -0.114 ± 0.076 | 0.0105 ± 0.023 | -0.004 ± 0.011 | -0.0085 ± 0.023
7 | KF3CT:TIMP-2 | -0.0045 ± 0.025 | 0.0075 ± 0.035 | 0.004 ± 0.016 | -0.0075 ± 0.00071 | -0.0155 ± 0.018 | -0.0075 ± 0.032 | 0.0005 ± 0.0064 | 0.012 ± 0.0042 | 0.019 ± 0.013 | 0.006 ± 0.021 | 0.0085 ± 0.025 | 0.031 ± 0.017 | 0.0015 ± 0.013 | 0.0135 ± 0.019 | 0.0035 ± 0.011 | -0.0075 ± 0.042 | -0.0015 ± 0.04 | 0.0055 ± 0.011
8 | BE3C:uPA | -0.004 ± 0.0014 | -0.0025 ± 0.0021 | 0.0005 ± 0.0092 | -0.003 ± 0.0099 | 0.005 ± 0.0099 | 0.0055 ± 0.00071 | 0.0145 ± 0.016 | -0.0005 ± 0.028 | 0.0115 ± 0.019 | -0.002 ± 0.0042 | 0.0055 ± 0.0035 | 0.0255 ± 0.015 | 0.0175 ± 0.015 | -0.0005 ± 0.0035 | 0.001 ± 0.0085 | -0.0145 ± 0.005 | -0.013 ± 0.014 | -0.0025 ± 0.0064
9 | KF3CT:IL-1alpha | 0.0455 ± 0.005 | 0.01 ± 0.0042 | 0.0225 ± 0.00071 | -0.0075 ± 0.022 | -0.001 ± 0.0071 | -0.007 ± 0.0028 | 0.0065 ± 0.054 | -0.014 ± 0.016 | -0.015 ± 0.017 | -0.007 ± 0.018 | 0.016 ± 0.014 | -0.0115 ± 0.0064 | 0.008 ± 0.017 | 0.005 ± 0.017 | -0.014 ± 0.017 | 0.0075 ± 0.00071 | -0.0065 ± 0.013 | 0.02 ± 0.013
10 | CASM3C:SRB | 0.0025 ± 0.005 | -0.0045 ± 0.005 | 0.0075 ± 0.015 | -0.007 ± 0.011 | 0.0005 ± 0.0078 | 0.0005 ± 0.00071 | -0.0045 ± 0.0021 | -0.0015 ± 0.012 | -0.0025 ± 0.016 | -0.008 ± 0.0099 | -0.011 ± 0.0014 | -0.0065 ± 0.012 | 0.0035 ± 0.013 | 0.0015 ± 0.0021 | -0.0015 ± 0.016 | 0.0035 ± 0.0021 | -0.006 ± 0.0028 | 0.0085 ± 0.005
11 | BE3C:SRB | -0.001 | -0.004 ± 0.0014 | 0.004 ± 0.018 | 0.0005 ± 0.0078 | -0.003 ± 0.0085 | 0.0085 ± 0.015 | -0.0035 ± 0.022 | -0.013 ± 0.0085 | -0.017 ± 0.011 | -0.006 ± 0.0071 | -0.0065 ± 0.0035 | 0.0035 ± 0.011 | -0.0125 ± 0.005 | 0.001 ± 0.017 | 0 ± 0.013 | -0.0005 ± 0.0021 | -0.0035 ± 0.0021 | 0.0025 ± 0.011
12 | KF3CT:CXCL8/IL-8 | 0.007 ± 0.016 | 0.028 ± 0.031 | 0.017 ± 0.02 | -0.0205 ± 0.021 | -0.0005 ± 0.019 | 0.0405 ± 0.0021 | 0.015 ± 0.02 | 0.03 ± 0.0057 | 0.038 ± 0.0057 | -0.0055 ± 0.0064 | 0.002 | 0.0105 ± 0.00071 | -0.0125 ± 0.016 | 0.003 ± 0.0014 | 0 ± 0.011 | -0.0015 ± 0.0078 | 0.0025 ± 0.033 | 0.026 ± 0.025
13 | CASM3C:CD142/Tissue Factor | -0.022 ± 0.027 | -0.0145 ± 0.04 | -0.0025 ± 0.037 | 0.0095 ± 0.005 | -0.004 ± 0.0014 | -0.0005 ± 0.0092 | 0.0145 ± 0.047 | -0.0005 ± 0.023 | 0.005 ± 0.0014 | -0.0065 ± 0.012 | 0.015 ± 0.016 | 0.015 ± 0.071 | -0.009 ± 0.013 | -0.018 ± 0.0042 | -0.031 | -0.012 ± 0.013 | -0.0275 ± 0.022 | 0.0215 ± 0.053
14 | MyoF:PAI-I | 0.0045 ± 0.016 | -0.001 ± 0.0014 | 0.0025 ± 0.0035 | 0.005 ± 0.016 | -0.0005 ± 0.018 | -0.0065 ± 0.0078 | -0.0055 ± 0.013 | -0.0135 ± 0.015 | -0.0055 ± 0.012 | 0 ± 0.016 | -0.0215 ± 0.023 | 0.0025 ± 0.018 | -0.001 ± 0.0028 | -0.025 ± 0.0057 | -0.12 ± 0.054 | 0.003 ± 0.013 | -0.0005 ± 0.0064 | 0.005 ± 0.0085
